{"source": "paper PMC10815831", "about": "“Comparison of Nuclear Medicine Therapeutics Targeting PSMA among Alpha-Emitting Nuclides” (International Journal of Molecular Sciences, 2024)", "key": {"[1]": {"target": "T1, prostate specific membrane antigen (PSMA) (Homo sapiens, UniProt Q04609)", "T1 construct": "gene FOLH1", "T1 sequence (Q04609 whole entry)": "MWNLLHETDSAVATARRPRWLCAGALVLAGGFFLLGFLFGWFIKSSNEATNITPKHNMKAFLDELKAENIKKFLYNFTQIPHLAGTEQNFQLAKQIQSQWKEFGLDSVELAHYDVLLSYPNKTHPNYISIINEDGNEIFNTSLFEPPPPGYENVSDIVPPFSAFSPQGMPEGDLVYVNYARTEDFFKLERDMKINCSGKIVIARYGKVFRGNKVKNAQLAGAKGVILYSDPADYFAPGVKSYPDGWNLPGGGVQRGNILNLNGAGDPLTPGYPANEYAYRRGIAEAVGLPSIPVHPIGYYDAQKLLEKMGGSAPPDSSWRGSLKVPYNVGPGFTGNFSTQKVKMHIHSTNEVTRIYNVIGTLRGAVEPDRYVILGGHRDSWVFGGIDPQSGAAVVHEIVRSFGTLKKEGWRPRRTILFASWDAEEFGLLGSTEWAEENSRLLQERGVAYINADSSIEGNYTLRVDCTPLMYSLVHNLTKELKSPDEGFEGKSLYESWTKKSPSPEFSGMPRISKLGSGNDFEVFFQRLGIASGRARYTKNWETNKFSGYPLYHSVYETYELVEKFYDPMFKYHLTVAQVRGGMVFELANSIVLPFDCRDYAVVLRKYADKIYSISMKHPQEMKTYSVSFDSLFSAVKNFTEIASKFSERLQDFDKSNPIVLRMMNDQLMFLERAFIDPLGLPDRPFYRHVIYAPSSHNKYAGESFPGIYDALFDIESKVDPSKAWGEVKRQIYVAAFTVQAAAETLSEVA", "test": "radioligand uptake in LNCaP (PSMA-high) cells, competition by unlabeled compound; PC3 (PSMA-low) as control", "type": "cell-based"}, "[2]": {"target": "T1, prostate specific membrane antigen (PSMA)", "test": "radioligand uptake in LNCaP (PSMA-high) cells, competition by unlabeled PSMA-617; PC3 (PSMA-low) as control", "type": "cell-based"}}, "data": [{"smiles": "O=C(O)CC[C@H](NC(=O)N[C@@H](CCCCNC(=O)[C@@H](Cc1ccc2ccccc2c1)NC(=O)c1ccc(CNC(=O)[C@@H](CCC(=O)O)NC(=O)[C@@H](CCC(=O)O)NC(=O)Cc2ccc([211At])cc2)cc1)C(=O)O)C(=O)O", "note": "[211At-PSMA-5]", "values": [{"measurement": "IC50", "setting": "[1]", "value": 0.32, "unit": "nM"}]}, {"smiles": "O=C([O-])CN1CCN(CC(=O)[O-])CCN(CC(=O)NCC2CCC(C(=O)NC(Cc3ccc4ccccc4c3)C(=O)NCCCC[C@H](NC(=O)N[C@@H](CCC(=O)O)C(=O)O)C(=O)O)CC2)CCN(CC(=O)[O-])CC1.[225Ac+3]", "note": "(some centres unmarked) [225Ac-PSMA-617]", "values": [{"measurement": "IC50", "setting": "[2]", "value": 2.64, "unit": "nM"}]}]}
